Data as given in US7863465B2, “Antifungal agents” (Merck Sharp & Dohme Corp., priority 2006, dated 2011).
pIC50: −log10 of the molar value.

The molecules below were run against T1, glucan synthase (GS) prepared from Candida albicans MY1055 (Candida albicans, UniProt O13428) (assay: Glucan synthase inhibition (polymerization assay, 96-well, 3H-UDPG incorporation)). Conditions: glucan synthase from C. albicans MY1055.
T1 construct: Extraction of GS activity from membranes was performed at a protein concentration of 5 mg/mL in extraction buffer; endogenous in cells; host or cells: Candida albicans MY1055 (membranes, detergent extract, product entrapment)
Format: biochemical
Method: The in vitro evaluation of glucan synthase inhibitory activity of compounds was measured in a polymerization assay in 96-well format. Each well contained 100 μL of ^3H-UDPG at 0.5 mM (6000 to 8000 dpm/nmol), 50 mM HEPES pH 7.5 (Sigma), 10% w/v glycerol (Sigma), 1.5 mg/mL bovine serum albumin (Sigma A 9647. Lot 44H0190), 25 mM KF (Fisher), 1 mM EDTA (Gibco Ultrapure), 25 μM GTP-γ-S, enzyme sufficient to give 3 to 6 nmoles incorporation during the 60 min incubation at 22° C., and test compound added from wells in 3-fold serial dilutions in 100% DMSO (1 μL/well). The reaction was stopped by the addition of 100 μL of 20% trichloroacetic acid. Plates were chilled for a minimum of 10 min, and precipitated glucan collected by filtration on GF/C plates (Packard Unifilter®-96), washed with 5 cycles of water (about 1 mL/well each cycle) using a Packard Filtermate Harvester. 40 μL/well scintillation fluid (Packard Ultima Gold TM-XR) was added and the sealed plates counted in a Wallac Beta counter in top-counting mode at an efficiency of approximately 40%.
Stock solutions were stored at 10 mg/mL in DMSO at −20° C. For each new enzyme preparation, the initial titration performed started at 1 mg/mL, which was prepared by making a 10-fold dilution in DMSO (5 μL to 50 μL). 40 μL of this stock was placed in column 12 of a round-bottomed 96-well microtiter plate. 40 μL DMSO was added to columns 1 to 11 in the same row and ten 3-fold serial dilutions performed, by transferring 20 μL from column 12 to column 11 etc., with 4 mixings before each transfer. No test compound was transferred to from column 2 to column 1. Duplicate aliquots of 1 μL of all 12 dilutions were then transferred to the side walls of a 96-well Bioblock 1.1 mL plate (Fisherbrand) to create two rows.
The results were tabulated and a standard plate background was subtracted and the net count transpose-pasted into a Prism file, with final compound concentrations used in ng/mL. Graphs were created in Prism software, using the average of two determinations, and using Prism's curve fitting program (sigmoidal dose response non-linear regression).
Routine analysis was performed with glucan synthase (GS) prepared from Candida albicans MY1055 by the following procedure: MY1055 was grown in 10 liters YPD medium (10 g yeast extract, 20 g tryptone, 20 g glucose per liter) with vigorous shaking at 30° C., to early stationary phase. Cells were harvested by centrifugation, the pellet was washed and frozen at −70° C. until breakage. Thawed pellets were shaken with an equal volume of breakage buffer (50 mM HEPES pH 7.4, 10% glycerol, 1 mM EDTA, 1 mM PMSF, 1 mM DTT) and 4 times their weight of 0.5 mm acid washed glass beads for 2 hours at 4° C. Extent of breakage was assessed visually at 40× magnification. For C. parapsilosis strains, shaking was extended to 3 hours to maximize breakage. After low speed centrifugation to remove cell debris, the supernatant was centrifuged at 100,000×g for 60 min. to separate membranes plus ribosomes from cytoplasmic components. Membranes were further washed two additional times with breakage buffer using the same centrifugation conditions and finally suspended in breakage buffer at 25 to 30 mg/mL protein (Biorad) for storage at −70° C. Extraction of GS activity from membranes was performed at a protein concentration of 5 mg/mL in extraction buffer (50 mM NaPO4 pH 7.5, 0.1 M KCl, 0.1M Na citrate, 20% glycerol, 5 μM GTP-γ-S, 1 mM DTT, 1 mM PMSF, 3 μg/mL pepstatin) plus 0.25% W1 by gentle mixing at 4° C. for 60 min, followed by centrifugation at 100,000×g for 60 min. After centrifugation, clear supernatant was removed from a pellet consisting of a hard layer usually with small amounts of gelatinous unextracted membranes above it. […]

T1 sequence (O13428 1-1897): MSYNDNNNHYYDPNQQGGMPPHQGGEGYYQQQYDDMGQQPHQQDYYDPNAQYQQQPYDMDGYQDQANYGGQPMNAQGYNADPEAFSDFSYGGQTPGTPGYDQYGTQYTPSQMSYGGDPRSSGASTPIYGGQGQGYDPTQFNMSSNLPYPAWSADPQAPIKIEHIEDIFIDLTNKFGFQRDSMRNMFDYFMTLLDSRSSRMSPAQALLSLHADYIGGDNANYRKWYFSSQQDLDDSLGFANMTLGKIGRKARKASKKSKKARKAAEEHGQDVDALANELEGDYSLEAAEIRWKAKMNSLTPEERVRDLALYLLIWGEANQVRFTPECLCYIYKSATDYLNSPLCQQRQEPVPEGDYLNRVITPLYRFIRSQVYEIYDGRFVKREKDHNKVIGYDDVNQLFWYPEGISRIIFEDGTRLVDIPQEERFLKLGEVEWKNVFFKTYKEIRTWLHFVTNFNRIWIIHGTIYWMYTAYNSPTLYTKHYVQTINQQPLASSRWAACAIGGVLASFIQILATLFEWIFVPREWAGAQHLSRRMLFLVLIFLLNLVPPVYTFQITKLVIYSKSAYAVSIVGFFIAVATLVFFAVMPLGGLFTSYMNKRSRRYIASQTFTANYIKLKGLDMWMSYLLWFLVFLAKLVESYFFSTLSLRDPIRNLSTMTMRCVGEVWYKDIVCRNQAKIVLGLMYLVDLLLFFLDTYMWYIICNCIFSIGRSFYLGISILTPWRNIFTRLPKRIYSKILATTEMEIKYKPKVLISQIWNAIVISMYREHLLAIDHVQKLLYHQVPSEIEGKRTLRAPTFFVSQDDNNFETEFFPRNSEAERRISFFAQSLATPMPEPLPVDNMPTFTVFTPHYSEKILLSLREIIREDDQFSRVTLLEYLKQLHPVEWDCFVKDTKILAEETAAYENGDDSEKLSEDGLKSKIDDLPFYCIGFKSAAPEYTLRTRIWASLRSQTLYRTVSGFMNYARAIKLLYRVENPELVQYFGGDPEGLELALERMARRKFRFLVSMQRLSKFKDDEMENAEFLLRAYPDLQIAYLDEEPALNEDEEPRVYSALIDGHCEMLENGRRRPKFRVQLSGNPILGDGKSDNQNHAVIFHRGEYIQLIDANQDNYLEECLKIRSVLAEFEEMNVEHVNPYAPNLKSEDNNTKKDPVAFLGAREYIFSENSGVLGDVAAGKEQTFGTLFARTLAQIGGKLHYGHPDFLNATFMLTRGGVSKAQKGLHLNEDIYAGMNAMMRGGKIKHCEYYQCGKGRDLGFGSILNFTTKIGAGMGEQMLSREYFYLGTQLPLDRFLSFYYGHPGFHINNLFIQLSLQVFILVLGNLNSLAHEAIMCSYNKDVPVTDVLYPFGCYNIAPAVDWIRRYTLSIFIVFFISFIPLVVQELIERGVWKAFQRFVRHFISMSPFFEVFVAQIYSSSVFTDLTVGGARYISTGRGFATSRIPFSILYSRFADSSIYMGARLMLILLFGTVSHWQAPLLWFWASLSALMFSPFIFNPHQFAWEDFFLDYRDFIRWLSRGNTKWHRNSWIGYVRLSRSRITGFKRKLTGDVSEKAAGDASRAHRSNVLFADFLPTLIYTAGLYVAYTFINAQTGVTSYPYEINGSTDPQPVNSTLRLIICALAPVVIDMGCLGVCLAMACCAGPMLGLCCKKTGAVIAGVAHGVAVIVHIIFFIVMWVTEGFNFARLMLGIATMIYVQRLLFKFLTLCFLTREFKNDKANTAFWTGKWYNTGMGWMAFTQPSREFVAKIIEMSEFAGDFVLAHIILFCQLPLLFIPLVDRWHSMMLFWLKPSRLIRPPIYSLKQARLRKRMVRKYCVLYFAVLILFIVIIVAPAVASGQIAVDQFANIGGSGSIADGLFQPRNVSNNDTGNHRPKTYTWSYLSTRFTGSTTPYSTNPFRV
T1 sequence (O42825 whole entry partner): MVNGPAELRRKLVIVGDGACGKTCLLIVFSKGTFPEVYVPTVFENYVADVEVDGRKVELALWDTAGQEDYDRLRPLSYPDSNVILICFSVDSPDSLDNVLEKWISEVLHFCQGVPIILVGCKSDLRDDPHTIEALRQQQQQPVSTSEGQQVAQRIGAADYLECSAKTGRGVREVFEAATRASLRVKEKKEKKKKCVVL

Compound	pIC50
COCC(CO[C@H]1[C@H](OC(C)=O)C[C@@]23COC[C@]1(C)[C@@H]2CC[C@H]1C3=CC(=O)[C@@]2(C)[C@H](C(=O)O)[C@@](C)([C@H](C)C(C)C)CC[C@]12C)N(C)C (stereo partly drawn) [Example 65, (1S,2R,3R,4aR,6aS,7R,8R,10aR,10bR,12aR)-3-(acetyloxy)-2-(2-dimethylamino-3-methoxypropoxy)-8-[(1R)-1,2-dimethylpropyl]-1,6a,8,10a-tetramethyl-6-oxo-1,3,4,6,6a,7,8,9,10,10a,10b,11,12,12a-tetradecahydro-2H-1,4a-(methanooxymethano)chrysene-7-carboxylic acid]	6.79
CCCN(CCC)C(CC)COC1C(OC(C)=O)CC23COCC1(C)C2CCC1C3=CC(=O)C2(C)C(C(=O)O)C(C)(C(C)C(C)C)CCC12C [Example 81, (1S, 2R, 3R, 4aR, 6aS, 7R, 8R, 10aR, 10bR, 12aR)-3-(acetyloxy)-2-(2-dipropylaminobutoxy)-8-[(1R)-1,2-dimethylpropyl]-1,6a,8, 10a-tetramethyl-6-oxo-1,3,4,6,6a,7,8,9,10,10a, 10b,11,12,12a-tetra decahydro-2H-1,4a-(methanooxymethano) chrysene-7-carboxylic acid]	6.30
CC(=O)O[C@@H]1C[C@@]23COC[C@](C)([C@@H]2CC[C@H]2C3=CC(=O)[C@@]3(C)[C@H](C(=O)O)[C@@](C)([C@H](C)C(C)C)CC[C@]23C)[C@H]1OCC(C(C)C)N1CCCCC1 (stereo partly drawn) [Example 89, (1S, 2R, 3R, 4aR, 6aS, 7R, 8R, 10aR, 10bR, 12aR)-3-(acetyloxy)-2-(3-methyl-2-piperidin-1-ylbutoxy)-8-[(1R)-1,2-dimethylpropyl]-1,6a,8, 10a-tetramethyl-6-oxo-1,3,4,6,6a,7,8,9,10,10a, 10b,11,12,12a-tetra decahydro-2H-1,4a-(methanooxymethano) chrysene-7-carboxylic acid]	6.78
CC(=O)O[C@@H]1C[C@@]23COC[C@@](C)([C@@H]2CC[C@H]2C3=CC(=O)[C@@]3(C)[C@H](C(=O)O)[C@@](C)([C@H](C)C(C)C)CC[C@]23C)[C@H]1OCC(C)(C)N(C)C [Example 114, (1S,2R,3R,4aR,6aS,7R,8R,10aR,10bR,12aR)-3-(acetyloxy)-2-(2-diamino-2-methylpropoxy)-8-[(1R)-1,2-dimethylpropyl]-1,6a,8,10a-tetramethyl-6-oxo-1,3,4,6,6a,7,8,9,10,10a,10b,11,12,12a-tetradecahydro-2H-1,4a-(methanooxymethano)chrysene-7-carboxylic acid]	7.09
CC(=O)O[C@@H]1C[C@@]23COC[C@@](C)([C@@H]2CC[C@H]2C3=CC(=O)[C@@]3(C)[C@H](C(=O)O)[C@@](C)([C@H](C)C(C)C)CC[C@]23C)[C@H]1OC[C@@](C)(N)C(C)C [Example 148, (1S,2R,3R,4aR,6aS,7R,8R,10aR,10bR,12aR)-3-acetoxy-2-[[(2S)-2-amino-2,3-dimethylbutyl]oxy]-8-[(1R)-1,2-dimethylpropyl]-1,6a,8,10a-tetramethyl-6-oxo-1,3,4,6,6a,7,8,9,10,10a,10b,11,12,12a-tetradecahydro-2H-1,4a-(methanooxymethano)chrysene-7-carboxylic acid]	7.69

Now from value to molecule:

pIC50	Compound
6.69	CC(=O)O[C@@H]1C[C@@]23COC[C@@](C)([C@@H]2CC[C@H]2C3=CC(=O)[C@@]3(C)[C@H](C(=O)O)[C@@](C)([C@H](C)C(C)C)CC[C@]23C)[C@H]1OCC(CN)CN(C)C (stereo partly drawn) [Example 68, (1S,2R,3R,4aR,6aS,7R,8R,10aR,10bR,12aR)-3-(acetyloxy)-2-(2-aminomethyl-3-dimethylaminopropoxy)-8-[(1R)-1,2-dimethylpropyl]-1,6a,8,10a-tetramethyl-6-oxo-1,3,4,6,6a,7,8,9,10,10a,10b,11,12,12a-tetradecahydro-2H-1,4a-(methanooxymethano)chrysene-7-carboxylic acid]
6.47	CC(=O)O[C@@H]1C[C@@]23COC[C@](C)([C@@H]2CC[C@H]2C3=CC(=O)[C@@]3(C)[C@H](C(=O)O)[C@@](C)([C@H](C)C(C)C)CC[C@]23C)[C@H]1OCC(C)NCc1ccc(CO)o1 (stereo partly drawn) [Example 71, (1S, 2R, 3R, 4aR, 6aS, 7R, 8R, 10aR, 10bR, 12aR)-3-(acetyloxy)-2-{2-[(5-hydroxymethylfuran-2-ylmethyl)-amino]-propoxy}-8-[(1R)-1,2-dimethylpropyl]-1,6a,8,10a-tetramethyl-6-oxo-1,3,4,6,6a,7,8,9,10,10a,10b,11, 12,12a-tetradecahydro-2H-1,4a-(methanooxymethano)chrysene-7-carboxylic acid]
6.81	CC(=O)O[C@@H]1C[C@@]23COC[C@](C)([C@@H]2CC[C@H]2C3=CC(=O)[C@@]3(C)[C@H](C(=O)O)[C@@](C)([C@H](C)C(C)C)CC[C@]23C)[C@H]1OCCCN [Example 109, (1S, 2R, 3R, 4aR, 6aS, 7R, 8R, 10aR, 10bR, 12aR)-3-(acetyloxy)-2-(3-aminopropoxy)-8-[(1R)-1,2-dimethylpropyl]-1,6a,8,10a-tetramethyl-6-oxo-1,3,4,6,6a,7,8,9, 10,10a,10b,11,12,12a-tetradeca hydro-2H-1,4a-(methanooxymethano) chrysene-7-carboxylic acid]
7.04	CCC(C)(CO[C@H]1[C@H](OC(C)=O)C[C@@]23COC[C@]1(C)[C@@H]2CC[C@H]1C3=CC(=O)[C@@]2(C)[C@H](C(=O)O)[C@@](C)([C@H](C)C(C)C)CC[C@]12C)N(C)C (stereo partly drawn) [Example 128, (1S, 2R, 3R, 4aR, 6aS, 7R, 8R, 10aR, 10bR, 12aR)-3-(acetyloxy)-2-(2-dimethylamino-2-methylbutyloxy)-8-[(1R)-1,2-dimethylpropyl]-1,6a,8,10a-tetramethyl-6-oxo-1,3,4,6,6a,7,8,9,10, 10a,10b,11,12,12a-tetradecahydro-2H-1,4a-(methanooxymethano)chrysene-7-carboxylic acid]
7.70	CN[C@](C)(CO[C@H]1[C@H](OC(C)=O)C[C@@]23COC[C@@]1(C)[C@@H]2CC[C@H]1C3=CC(=O)[C@@]2(C)[C@H](C(=O)O)[C@@](C)([C@H](C)C(C)C)CC[C@]12C)C(C)C [Example 149, (1S,2R,3R,4aR,6aS,7R,8R,10aR,10bR,12aR)-3-(acetyloxy)-2-[(2S)-2-methylamino-2,3-dimethylbutyloxy]-8-[(1R)-1,2-dimethylpropyl]-1,6a,8,10a-tetramethyl-6-oxo-1,3,4,6,6a,7,8,9,10,10a,10b,11,12,12a-tetradecahydro-2H-1,4a-(methanooxymethano)chrysene-7-carboxylic acid]
7.68	CC(=O)O[C@@H]1C[C@@]23COC[C@@](C)([C@@H]2CC[C@H]2C3=CC(=O)[C@@]3(C)[C@H](C(=O)O)[C@@](C)([C@H](C)C(C)C)CC[C@]23C)[C@H]1OC[C@](C)(C(C)C)N(C)C [Example 150, (1S,2R,3R,4aR,6aS,7R,8R,10aR,10bR,12aR)-3-(acetyloxy)-2-[(2S)-2-dimethylamino-2,3-dimethylbutyloxy]-8-[(1R)-1,2-dimethylpropyl]-1,6a,8,10a-tetramethyl-6-oxo-1,3,4,6,6a,7,8,9,10,10a,10b,11,12,12a-tetradecahydro-2H-1,4a-(methanooxymethano)chrysene-7-carboxylic acid]
